Assay results published in patent publication US20040023228A1, “System and method for analysing active ingredients designed to influence intra-cellular processes” (priority 2000, published 2004).

Test system: tubulin
Test: FCS measurement of incorporation of rhodamine-labeled tubulin dimers into preformed microtubules (exchange kinetics in the assembly equilibrium)
Details: 10^−5M tubulin assembly mixture, 10^−9M rhodamine-labeled tubulin, 37° C.

Structure (SMILES) | concentration up to which the action on the described kinetics can be tracked
COC(=O)Nc1nc2ccc(C(=O)c3cccs3)cc2[nH]1 [nocodazole] | 10^−11 M
CC(=O)O[C@H]1C(=O)[C@@]2(C)[C@H]([C@H](OC(=O)c3ccccc3)[C@]3(O)C[C@H](OC(=O)[C@H](O)[C@@H](NC(=O)c4ccccc4)c4ccccc4)C(C)=C1C3(C)C)[C@]1(OC(C)=O)CO[C@@H]1C[C@@H]2O [taxol, paclitaxel] | 10^−11 M
